Several values for one entry are separate records, joined by “and”; a condition that tells them apart may be missing. Equal entries are not always repeated.
Tests used:
yeast cells = assay: Cell leakage assay (FungaLight, flow cytometry); assay type: cell-based, Saccharomyces cerevisiae; settings: 4 h
Experimental: A FungaLight Cell Viability Assay (L34952; Invitrogen) using a Guava Flow Cytometer (Millipore) was used to determine if poacic acid caused membrane damage. The population of stained cells (damaged integrity) vs. nonstained cells can be determined by flow cytometry. Caspofungin (50 ng/mL) was included as a positive control. MMS and DMSO were included as a noncell wall-targeting control and a solvent control, respectively. To test the effects of the compounds on both active and arrested cells, log-phase cultures were washed with 1×PBS and resuspended to an OD0.5 in either YPD medium or YP (no carbon source) in the presence of the drugs (n=3) for 4 h at 30° C. The cells were then stained and immediately read by flow cytometry. One-way ANOVA and Tukey's test were used to calculate the difference between drug treatments among cells with arrested growth.

[1] = system: S. sclerotiorum strain 1980; assay: Growth inhibition of S. sclerotiorum in liquid and agar culture; assay type: cell-based, Sclerotinia sclerotiorum; settings: 0, 125, 250, 500 μg/mL, 48 h, P<0.01
Experimental: To test inhibition in liquid culture, a dose curve of 0, 125, 250, and 500 μg/mL poacic acid in 100 mL potato dextrose broth (n=3) was used. Cultures of S. sclerotiorum strain 1980 were inoculated with 100 μL homogenized mycelia and grown at 25° C. for 48 h. The mycelia in the liquid media were dried and weighed. The growth inhibition of poacic acid on solid agar cultures (potato dextrose agar) was assessed by generating replicate plates (n=3) containing 0, 125, 250, and 500 μg/mL poacic acid. Plates were inoculated with an actively growing plug of S. sclerotiorum and grown at 25° C. The mycelial radial growth after 48 h was measured Inhibition of S. sclerotiorum in planta was tested by inoculating detached soybean leaves of the commercial variety Williams 82 with an agar plug of actively growing S. sclerotiorum mycelia. Leaves were treated one time before inoculation with either an aerosol spray of water with DMSO (control) or a 500 μg/mL solution of poacic acid. Leaves were incubated in a moist environment, and lesion development was monitored up to 120 h postinoculation. […] The growth inhibition of poacic acid was assessed at 0, 500, 1,000, and 1,500 μg/mL in replicate plates (n=3). […] Colony diameter was monitored for each treatment in a time-course experiment. […]

[2] = Cell-free glucan staining (binding to purified yeast glucan); settings: 0.125% (wt/vol) poacic acid, fluorescence
Experimental: β-1,3-Glucan was stained with aniline blue (016-21302; Wako Chemicals) as described previously (Watanabe et al. 2001) with slight modification. Briefly, log-phase yeast cells (his3Δ) were cultured in YPD with poacic acid (125 μg/mL) at 25° C. Then, cells were collected at 0, 2, 4, and 6 h after treatment and stained with aniline blue without fixation as described previously (Okada et al. 2015). Cells mounted on a glass slide were exposed to UV for 30 s to bleach out poacic acid fluorescence before acquiring images. Staining of chitin or mannoproteins with calcofluor white (F3543; Sigma-Aldrich) or Alexa594-ConA (C11253; Life Technologies), respectively, was performed as described previously (Okada et al. 2015). For cell-free glucan staining, yeast glucan (G0331; Tokyo Chemical Industry) was suspended to 0.125% (wt/vol) poacic acid and observed under a fluorescent microscope using a regular DAPI filter set (Carl Zeiss).

[3] = system: S. cerevisiae (BY4741 his3Δ::KanMX); assay: Multivariate morphological analysis (CalMorph); assay type: cell-based, Saccharomyces cerevisiae
Experimental: Cells of budding yeast S. cerevisiae (BY4741 his3Δ::KanMX; hereafter, his3Δ) were cultured in 2 mL 1% Bacto yeast extract (BD Biosciences), 2% Bacto peptone (BD Biosciences), and 2% glucose (YPD) with 0, 25, 50, 75, 100, or 125 μg/mL poacic acid or a DMSO control at 25° C. for 16 h until the early log phase. The maximum concentration of the drug (125 μg/mL) was determined based on the growth inhibition rates (10%). Cell fixation, staining, and observation were performed (n=5) as described previously (Ohya et al. 2005). Images of cell shape, actin, and nuclear DNA were analyzed using the image processing software CalMorph (version 1.2), which extracted a total of 501 morphological quantitative values from at least 200 individual cells in each experiment (Ohya et al. 2005). Images were processed using Photoshop CS2 (Adobe Systems) for illustrative purposes.
To assess the morphological similarity between the cells treated with poacic acid and nonessential deletion mutants or cells treated with other cell wall-affecting drugs, their morphological profiles were compared as described previously (Ohnuki et al. 2010). To identify functional gene clusters, the most significant similar mutants (43 genes, P<0.01 after Bonferroni correction, t test) were selected as a query for GO term analysis (GO term finder in the Saccharomyces genome database).
To extract independent and characteristic features of morphology induced by poacic acid, a two-step principal component analysis was performed as described previously (Ohnuki et al. 2012). To compare phenotypic noise in the yeast population (poacic acid vs. DMSO), the noise score was calculated as described previously (Yvert et al. 2013).

Saccharomyces cerevisiae = assay: Growth inhibition of S. cerevisiae control strain by diferulates; assay type: cell-based; settings: for bioactivity against S. cerevisiae: 1 mg/mL
Experimental: The diferulate compounds tested were synthesized as described by Lu et al. (2012) and resuspended in DMSO. Caspofungin, nikkomycin Z, and MMS were purchased from Sigma-Aldrich. Echinocandin B was a gift from O. Kondo (Chugai Pharmaceuticals, Tokyo, Japan). Micafungin was provided by Astellas Pharma. Diferulates were initially screened at a concentration of 1 mg/mL to determine bioactivity. Cells of Saccharomyces cerevisiae (MATα pdr1Δ::natMX pdr3Δ::KLURA3 snq2Δ::KI.LEU2 can1Δ::STE2pr-Sp_his5 lyp1Δ his3Δ1 leu2Δ0 ura3Δ0 met15Δ0), referred to as the control strain, were grown in 200-μL cultures at 30° C. in YPD with a drug or DMSO control. Plates were read on a TECAN M1000 over a 48-h growth period. The specific growth rate was calculated using GCAT analysis software (https://gcat3-pub.glbrc.org/) (Sato et al. 2014). When presented, IC50 values for growth rate inhibition were calculated from triplicate eight-point dose curves and SigmaPlot 12.0. When presented, error bars are means±SEs of at least three replicates.

SMILES: COc1cc(/C=C/c2cc(/C=C/C(=O)O)cc(OC)c2O)ccc1O [poacic acid, (E)-4-Hydroxy-3-{2-[(E)-4-hydroxy-3-methoxystyryl]}-5-methoxycinnamic acid]
- cell leakage (propidium iodide uptake) (yeast cells; actively growing cells (YPD)): caused rapid cell leakage
- cell leakage (propidium iodide uptake) (yeast cells; arrested cells without carbon source (YP)): leakage was still significantly greater
- colony radial growth on agar plates [1]: dose-dependent decrease
- fungal mass (mycelia weight) in liquid culture [1]: dose-dependent decrease
- binding to purified yeast glucan [2]: directly binds β-1,3-glucan
- bud neck size ([3]; 0-125 μg/mL, 16 h): dose-dependent increase in bud neck size
- heterogeneity of cell morphology ([3]; 0-125 μg/mL, 16 h): heterogeneous morphologies
- inhibition at 125 µg/mL ([3]; Saccharomyces cerevisiae, read-out: growth inhibition rates): 10%
- morphological correlation with other cell wall-affecting compounds ([3]; vs micafungin, echinocandin B and other cell wall-affecting compounds): lower morphological correlations
- bioactivity against S. cerevisiae (Saccharomyces cerevisiae): greatest antifungal activity
- bioactivity against S. cerevisiae (Saccharomyces cerevisiae; listed as Poacic acid): highest bioactivity
- IC50 (Saccharomyces cerevisiae; Saccharomyces cerevisiae, read-out: IC50 (growth rate inhibition)): 111 µg/mL and 324 µM
